In the supplement of paper PMC11208160:

Experiment: recombinant barcode read abundance after kanamycin selection (control-corrected) (log10(CPM+1)); higher = more efficient recombination; sequences stand for … in AGTGCAGAGAAAATCGGCCAGTTTTCTCTGCCTGCAGTCCGCATGCCGT…AGATTTATGCAGCGGACTGCCTTTCTCCCAAAGTGATAAACCGGACAGTATCATGGACCGGTTTTCCCGGTAATCCGTATTTGCAAGGTTGGTTTCACT; site = the 11-nt target
Summary of the method: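 In a pooled screen in E. coli, targets were paired with target-binding loops of the IS621 bridge RNA. Each oligo carried a promoter, a target, a barcode and the first 104 bridge RNA bases driven by J23119, and was Gibson-cloned into a vector holding the remaining 73 bp and a T7-inducible recombinase before co-electroporation with a donor plasmid. Duplicate platings went onto chloramphenicol/ampicillin LB agar as the control or onto chloramphenicol/ampicillin/kanamycin with 0.1 mM IPTG. Recombination efficiency is the averaged, control-corrected count per million of barcodes at recombinant junctions, given as log10(CPM+1).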
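Further: IS621 recombinase and bridge RNA in Escherichia coli cells.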

Sequence | recombinant barcode read abundance (log10)
GTAAGTGCTTGGGTTCTAACCTGTTGCCT (site GTAAATGCTAG) | 0.0588
GTAAGTGCTTGGGTTCTAACCTGTTGCCT (site GTAACTGCTAG) | 0.0692
GTAAGTGCTTGGGTTCTAACCTGTTGCCT (site GTAAGTGCTAG) | 1.28
GTAAGTGCTTGGGTTCTAACCTGTTGCCT (site GTAATTGCTAG) | 0.187
GTAATGACTTGGGTTCTAACCTGTTGCCT (site GAAATGACTAG) | 0.403
GTAATGACTTGGGTTCTAACCTGTTGCCT (site GCAATGACTAG) | 0.194
GTAATGACTTGGGTTCTAACCTGTTGCCT (site GGAATGACTAG) | 0.105
GTAATGACTTGGGTTCTAACCTGTTGCCT (site GTAATGACTAG) | 1.6
GTAATGTCTTGGGTTCTAACCTGTTGCCT (site GAAATGTCTAG) | 0.284
GTAATGTCTTGGGTTCTAACCTGTTGCCT (site GCAATGTCTAG) | 0.289
GTAATGTCTTGGGTTCTAACCTGTTGCCT (site GGAATGTCTAG) | 0.112
GTAATGTCTTGGGTTCTAACCTGTTGCCT (site GTAATGTCTAG) | 2.04
GTACAATCTTGGGTTCTAACCTGTTGCCT (site ATACAATCTAG) | 0.947
GTACAATCTTGGGTTCTAACCTGTTGCCT (site CTACAATCTAG) | 0.339
GTACAATCTTGGGTTCTAACCTGTTGCCT (site GTACAATCTAG) | 1.43
GTACAATCTTGGGTTCTAACCTGTTGCCT (site TTACAATCTAG) | 0.371
GTACCTACTTGGGTTCTAACCTGTTGCTA (site CGACCTACTTA) | 0.0562
GTACCTACTTGGGTTCTAACCTGTTGCTA (site GTACCTACTTA) | 1.33
GTACGAGCTTGGGTTCTAACCTGTTGCCG (site GTACGAGCTCG) | 0.848
GTACGAGCTTGGGTTCTAACCTGTTGCCG (site GTGTGAGCTCG) | 0.38
GTACGTCCTTGGGTTCTAACCTGTTGCAT (site GTACGTCCTAA) | 0.133
GTACGTCCTTGGGTTCTAACCTGTTGCAT (site GTACGTCCTAC) | 1.01

Sequence | recombinant barcode read abundance (log10)
GTACGTCCTTGGGTTCTAACCTGTTGCAT (site GTACGTCCTAG) | 0.52
GTACGTCCTTGGGTTCTAACCTGTTGCAT (site GTACGTCCTAT) | 1
GTACGTCCTTGGGTTCTAACCTGTTGCCT (site GTACGTCCTAA) | 0.112
GTACGTCCTTGGGTTCTAACCTGTTGCCT (site GTACGTCCTAC) | 0.352
GTACGTCCTTGGGTTCTAACCTGTTGCCT (site GTACGTCCTAG) | 0.482
GTACGTCCTTGGGTTCTAACCTGTTGCCT (site GTACGTCCTAT) | 0.0848
GTACTACCTTGGGTTCTAACCTGTTGCCG (site ACGGAGACTAT) | 0.198
GTACTACCTTGGGTTCTAACCTGTTGCCG (site GTACTACCTCG) | 1.14
GTACTCTCTTGGGTTCTAACCTGTTGCAG (site CCGTCAACTAG) | 0.0592
GTACTCTCTTGGGTTCTAACCTGTTGCAG (site GTACTCTCTCT) | 1.33
GTAGACCCTTGGGTTCTAACCTGTTGCTG (site GTAGACCCTAC) | 1.29
GTAGACCCTTGGGTTCTAACCTGTTGCTG (site GTAGACCCTCA) | 2.94
GTAGAGTCTTGGGTTCTAACCTGTTGCTT (site GTAGAGTCTAA) | 2.41
GTAGAGTCTTGGGTTCTAACCTGTTGCTT (site GTGGAGTCTAG) | 0.685
GTAGCCACTTGGGTTCTAACCTGTTGCCT (site GTAGCCACTAG) | 2.37
GTAGCCACTTGGGTTCTAACCTGTTGCCT (site GTCGCCACTAG) | 0.449
GTAGCCACTTGGGTTCTAACCTGTTGCCT (site GTGGCCACTAG) | 0.791
GTAGCCACTTGGGTTCTAACCTGTTGCCT (site GTTGCCACTAG) | 1.06
GTAGGCGCTTGGGTTCTAACCTGTTGCCT (site GTAGGCGCTAG) | 1.96
GTAGGCGCTTGGGTTCTAACCTGTTGCCT (site GTCGGCGCTAG) | 0.33
GTAGGCGCTTGGGTTCTAACCTGTTGCCT (site GTGGGCGCTAG) | 0.441
GTAGGCGCTTGGGTTCTAACCTGTTGCCT (site GTTGGCGCTAG) | 0.0331

Sequence | recombinant barcode read abundance (log10)
GTAGGGACTTGGGTTCTAACCTGTTGCCT (site GAAGGGACTAG) | 1.34
GTAGGGACTTGGGTTCTAACCTGTTGCCT (site GCAGGGACTAG) | 0.806
GTAGGGACTTGGGTTCTAACCTGTTGCCT (site GGAGGGACTAG) | 0.439
GTAGGGACTTGGGTTCTAACCTGTTGCCT (site GTAGGGACTAG) | 1.97
GTAGGGTCTTGGGTTCTAACCTGTTGCCT (site GTAGGGTCTAG) | 2.41
GTAGGGTCTTGGGTTCTAACCTGTTGCCT (site TTGGGGTCTAG) | 0.324
GTATACCCTTGGGTTCTAACCTGTTGCAT (site GTATACCCTAT) | 2.34
GTATACCCTTGGGTTCTAACCTGTTGCAT (site GTATACCCTTG) | 0.224
GTATCCACTTGGGTTCTAACCTGTTGCTA (site GTATCCACTTA) | 1.47
GTATCCACTTGGGTTCTAACCTGTTGCTA (site GTATGCCCTTA) | 0.0561
GTATCCTCTTGGGTTCTAACCTGTTGCAT (site GTATCCTCTAT) | 2.28
GTATCCTCTTGGGTTCTAACCTGTTGCAT (site GTATGCTCTAC) | 0.0984
GTATCTCCTTGGGTTCTAACCTGTTGCGG (site GTATCTCCTCC) | 0.0723
GTATCTCCTTGGGTTCTAACCTGTTGCGG (site GTCTCACCTCC) | 0.0668
GTATCTCCTTGGGTTCTAACCTGTTGCTT (site GTATCTCCTAA) | 0.321
GTATCTCCTTGGGTTCTAACCTGTTGCTT (site GTATTTCCTAA) | 0.136
GTATGTGCTTGGGTTCTAACCTGTTGCAA (site CTATGTGCTTC) | 0.0841
GTATGTGCTTGGGTTCTAACCTGTTGCAA (site GTATGTGCTTT) | 0.769
GTCAAACCTTGGGTTCTAACCTGTTGCTT (site GACAAACCTAG) | 0.274
GTCAAACCTTGGGTTCTAACCTGTTGCTT (site GTCAAACCTAA) | 0.46
GTCAAAGCTTGGGTTCTAACCTGTTGCCA (site GTCAAAGCTTG) | 0.0767
GTCAAAGCTTGGGTTCTAACCTGTTGCCA (site GTCACAGCTAG) | 0.407

Sequence | recombinant barcode read abundance (log10)
GTCAACCCTTGGGTTCTAACCTGTTGCTG (site GTCAAACCTCA) | 0.045
GTCAACCCTTGGGTTCTAACCTGTTGCTG (site GTCAACCCTCA) | 2.49
GTCAACCCTTGGGTTCTAACCTGTTGCTG (site GTCAAGCCTCA) | 0.32
GTCAACCCTTGGGTTCTAACCTGTTGCTG (site GTCAATCCTCA) | 0.145
GTCAATCCTTGGGTTCTAACCTGTTGCTG (site GTCAAACCTCA) | 0.00666
GTCAATCCTTGGGTTCTAACCTGTTGCTG (site GTCAACCCTCA) | 0.288
GTCAATCCTTGGGTTCTAACCTGTTGCTG (site GTCAAGCCTCA) | 0.193
GTCAATCCTTGGGTTCTAACCTGTTGCTG (site GTCAATCCTCA) | 1.49
GTCACCGCTTGGGTTCTAACCTGTTGCCT (site GTAACCGCTAG) | 0.409
GTCACCGCTTGGGTTCTAACCTGTTGCCT (site GTCACCGCTAG) | 2.08
GTCACCGCTTGGGTTCTAACCTGTTGCCT (site GTGACCGCTAG) | 0.129
GTCACCGCTTGGGTTCTAACCTGTTGCCT (site GTTACCGCTAG) | 0.464
GTCATGGCTTGGGTTCTAACCTGTTGCCT (site GTCAGGGCTAG) | 0.0945
GTCATGGCTTGGGTTCTAACCTGTTGCCT (site GTCATGGCTAG) | 0.283
GTCCACTCTTGGGTTCTAACCTGTTGCAC (site GTCCACCCTCT) | 0.0658
GTCCACTCTTGGGTTCTAACCTGTTGCAC (site GTCCACTCTGT) | 2.21
GTCCAGTCTTGGGTTCTAACCTGTTGCGT (site GTCCACTCTAA) | 0.0578
GTCCAGTCTTGGGTTCTAACCTGTTGCGT (site GTCCAGTCTAC) | 3.16
GTCCATTCTTGGGTTCTAACCTGTTGCAT (site GGACATTCTAT) | 0.101
GTCCATTCTTGGGTTCTAACCTGTTGCAT (site GTCCATTCTAT) | 1.56
